Test results taken from EPA's ToxValDB 9.5 (doi:10.2903/j.efsa.2009.190r).

What was measured:
Tagia sp. = conditions: acute; duration: 14 days; mortality
Rattus norvegicus = conditions: for NOAEL: inhalation
[1] = chronic, duration: 2 years, no effects
[2] = reproduction developmental, mortality
[3] = subchronic, duration: 90 days, no effects

Row | Compound | LC50 (Tagia sp.) | LD50 (Rattus norvegicus; acute, oral, mortality) | NOAEL (Rattus norvegicus; [1]) | NOAEL (Rattus norvegicus; [2]) | NOAEL (Rattus norvegicus; [3]) | NOAEL (Rattus norvegicus; developmental, duration: 10 days, development) | NOAEL (Rattus norvegicus; subchronic, duration: 90 days, mortality)
1 | [Mg+2].[Mg+2].[Mg+2].[P-3].[P-3] [Magnesium phosphide] | 664 mg/kg | 11.2 mg/kg-day | 1.1 mg/kg-day | 1.9 mg/kg-day | 1.1 mg/kg-day | – | –
2 | P [Phosphine] | – | – | 1.1 mg/kg-day | 1.9 mg/kg-day | 1.1 mg/kg-day | 1.9 mg/kg-day | 1.1 mg/kg-day
